The source made the active and inactive calls. The calls are words filed in the database; no cut-off is given here.
Tested on: Neuron
Assay: Neurotrophic activity in Sprague-Dawley rat neurons assessed as induction of neurite outgrowth at 0.1 to 10 uM after 5 days by microscopy
Type: functional, cell-based

SMILES | Activity
C[C@@H]1[C@H](O)C=C2[C@@]13C[C@@H](OC(=O)[C@@H]3O)[C@@]1(O)C(=O)OC[C@@]21C | Active
COC(=O)C1(O)O[C@@H]2C[C@@]13C(=CC(=O)[C@@H]3C)[C@]1(C)COC(=O)[C@]21O (mixture of isomers) | Active

From ChEMBL document CHEMBL1148121, “New seco-prezizaane-type sesquiterpenes, jiadifenin with neurotrophic activity and 1,2-dehydroneomajucin from Illicium jiadifengpi” (J Nat Prod, 2002)
